# Legend:
# Test in all cases: Growth and enzymatic activity on ChromID CPS-based selective media
# Assay type in all cases: cell-based
# Details in all cases: cefpodoxime 4 mg/l (T), cefepime 0.25 mg/l (A), cefamandole 3 mg/l (B), cefuroxime 3 mg/l (C), each with 300 mg/l cloxacillin
# [1] = test system: Enterobacter aerogenes 0502112 (ESBL); parameters: key to the marks not given beside the values
# Source text: (§1) Choice of strains: The inventors selected strains which make it possible to evaluate the activity of antibiotics with respect to Gram-negative species: enterobacteria and nonfermenting bacilli. In particular, ESBL-producing strains, high-level cephalosporinase-producing strains (HL Case) and strains without a particular resistance profile, termed wild-type strains, were used.
# (§2) Preparation of media: The media tested were media composed of the peptone base of the ChromID CPS medium (bioMérieux ref 43541) to which were added, after autoclaving, in molten media, 300 mg/l cloxacillin and, for medium T: 4 mg/l cefpodoxime, for medium A: 0.25 mg/L of cefepime, for medium B: 3 mg/l of cefamandole and for medium C: 3 mg/l of cefuroxime.
# (§3) Inoculation of media: The media are inoculated by carrying out a 3-quadrant streaking method using bacterial suspensions at 0.5 McF. The media are then incubated for 24 hours at 37° C.
# (§4) Reading of media: The media are observed visually after 18 h and 24 hours of incubation, the growth density and also the colorations and coloration strengths are evaluated according to the scale below: • − or 0: absence of growth or of expression of enzymatic acitivity (i.e. no coloration) • +: weak growth, or enzymatic activity • ++: very strong growth density or strong enzymatic acitivity (very strong coloration)
# [2] = test system: Escherichia coli 0411146 (ESBL); parameters: key to the marks not given beside the values
# Source text: as §1, §2, §3, §4
# [3] = test system: Enterobacter spp 9306069 (HL case); parameters: key to the marks not given beside the values
# Source text: as §1, §2, §3, §4
# [4] = test system: Klebsiella oxytoca 0502094 (ESBL); parameters: key to the marks not given beside the values
# Source text: as §1, §2, §3, §4
# [5] = test system: Escherichia coli 0505101 (ESBL); parameters: Enz act.: key to the marks not given beside the values
# Source text: as §1, §2, §3, §4
# [6] = test system: Morganella morganii 9904104 (HL case)
# Source text: as §1, §2, §3, §4
# [7] = test system: Proteus mirabilis 0105109 (HL case)
# Source text: as §1, §2, §3, §4
# [8] = test system: Proteus mirabilis 0105105 (HL case)
# Source text: as §1, §2, §3, §4
# [9] = test system: Klebsiella oxytoca 0105100 (HL case)
# Source text: as §1, §2, §3, §4
# [10] = test system: Serratia fonticola 8001047 (Wild-type)
# Source text: as §1, §2, §3, §4
# [11] = test system: Proteus mirabilis 9709068 (ESBL)
# Source text: as §1, §2, §3, §4
# [12] = test system: Enterobacter spp 0503037 (Wild-type)
# Source text: as §1, §2, §3, §4
structure (smiles),measurement,setting,value
"COCC1=C(C(=O)O)N2C(=O)[C@@H](NC(=O)/C(=N\OC)c3csc(N)n3)[C@H]2SC1 [Cefpodoxime, cefpodoxime]",Enz act.,[1]; 18 h at 37° C.,++
same,Growth,[1]; 18 h at 37° C.,++
same,Enz act.,[1]; 24 h at 37° C.,++
same,Growth,[1]; 24 h at 37° C.,++
same,Enz act.,[2]; 18 h at 37° C.,++
same,Growth,[2]; 18 h at 37° C.,++
same,Enz act.,[2]; 24 h at 37° C.,++
same,Growth,[2]; 24 h at 37° C.,++
same,Enz act.,[3]; 18 h at 37° C.,++
same,Growth,[3]; 18 h at 37° C.,++
same,Enz act.,[3]; 24 h at 37° C.,++
same,Growth,[3]; 24 h at 37° C.,++
same,Enz act.,[4]; 18 h at 37° C.,++
same,Growth,[4]; 18 h at 37° C.,++
same,Enz act.,[4]; 24 h at 37° C.,++
same,Growth,[4]; 24 h at 37° C.,++
same,Enz act.,[5]; 18 h at 37° C.,++
same,Growth,[5]; 18 h at 37° C.,+
same,Enz act.,[5]; 24 h at 37° C.,++
same,Growth,[5]; 24 h at 37° C.,++
same,Enz act.,[6]; 18 h at 37° C.,−
same,Growth,[6]; 18 h at 37° C.,−
same,Enz act.,[6]; 24 h at 37° C.,−
same,Growth,[6]; 24 h at 37° C.,−
same,Enz act.,[7]; 18 h at 37° C.,−
same,Growth,[7]; 18 h at 37° C.,−
same,Enz act.,[7]; 24 h at 37° C.,−
same,Growth,[7]; 24 h at 37° C.,−
same,Enz act.,[8]; 18 h at 37° C.,−
same,Growth,[8]; 18 h at 37° C.,−
same,Enz act.,[8]; 24 h at 37° C.,−
same,Growth,[8]; 24 h at 37° C.,−
same,Enz act.,[9]; 18 h at 37° C.,++
same,Growth,[9]; 18 h at 37° C.,++
same,Enz act.,[9]; 24 h at 37° C.,++
same,Growth,[9]; 24 h at 37° C.,++
same,Enz act.,[10]; 18 h at 37° C.,+
same,Growth,[10]; 18 h at 37° C.,+
same,Enz act.,[10]; 24 h at 37° C.,++
same,Growth,[10]; 24 h at 37° C.,+
same,Enz act.,[11]; 18 h at 37° C.,+
same,Growth,[11]; 18 h at 37° C.,+
same,Enz act.,[11]; 24 h at 37° C.,+
same,Growth,[11]; 24 h at 37° C.,+
same,Enz act.,[12]; 18 h at 37° C.,++
same,Growth,[12]; 18 h at 37° C.,++
same,Enz act.,[12]; 24 h at 37° C.,++
same,Growth,[12]; 24 h at 37° C.,++
"CO/N=C(\C(=O)N[C@@H]1C(=O)N2C(C(=O)O)=C(COC(N)=O)CS[C@H]12)c1ccco1 [Cefuroxime, cefuroxime]",Enz act.,[1]; 18 h at 37° C.,++
same,Growth,[1]; 18 h at 37° C.,++
same,Enz act.,[1]; 24 h at 37° C.,++
same,Growth,[1]; 24 h at 37° C.,++
same,Enz act.,[2]; 18 h at 37° C.,++
same,Growth,[2]; 18 h at 37° C.,++
same,Enz act.,[2]; 24 h at 37° C.,++
same,Growth,[2]; 24 h at 37° C.,++
same,Enz act.,[3]; 18 h at 37° C.,++
same,Growth,[3]; 18 h at 37° C.,++
same,Enz act.,[3]; 24 h at 37° C.,++
same,Growth,[3]; 24 h at 37° C.,++
same,Enz act.,[4]; 18 h at 37° C.,++
same,Growth,[4]; 18 h at 37° C.,++
same,Enz act.,[4]; 24 h at 37° C.,++
same,Growth,[4]; 24 h at 37° C.,++
same,Enz act.,[5]; 18 h at 37° C.,++
same,Growth,[5]; 18 h at 37° C.,++
same,Enz act.,[5]; 24 h at 37° C.,++
same,Growth,[5]; 24 h at 37° C.,++
same,Enz act.,[6]; 18 h at 37° C.,−
same,Growth,[6]; 18 h at 37° C.,−
same,Enz act.,[6]; 24 h at 37° C.,−
same,Growth,[6]; 24 h at 37° C.,−
same,Enz act.,[7]; 18 h at 37° C.,++
same,Growth,[7]; 18 h at 37° C.,+
same,Enz act.,[7]; 24 h at 37° C.,++
same,Growth,[7]; 24 h at 37° C.,+
same,Enz act.,[8]; 18 h at 37° C.,−
same,Growth,[8]; 18 h at 37° C.,−
same,Enz act.,[8]; 24 h at 37° C.,−
same,Growth,[8]; 24 h at 37° C.,−
same,Enz act.,[9]; 18 h at 37° C.,++
same,Growth,[9]; 18 h at 37° C.,+
same,Enz act.,[9]; 24 h at 37° C.,++
same,Growth,[9]; 24 h at 37° C.,++
same,Enz act.,[10]; 18 h at 37° C.,++
same,Growth,[10]; 18 h at 37° C.,++
same,Enz act.,[10]; 24 h at 37° C.,++
same,Growth,[10]; 24 h at 37° C.,++
same,Enz act.,[11]; 18 h at 37° C.,+
same,Growth,[11]; 18 h at 37° C.,+
same,Enz act.,[11]; 24 h at 37° C.,++
same,Growth,[11]; 24 h at 37° C.,+
same,Enz act.,[12]; 18 h at 37° C.,++
same,Growth,[12]; 18 h at 37° C.,++
same,Enz act.,[12]; 24 h at 37° C.,++
same,Growth,[12]; 24 h at 37° C.,++

# Source: patent US20120122148A1, “Media For The Specific Detection Of Gram-Negative Bacteria Resistant To Beta-Lactam Antibiotics” (bioMerieux, SA, priority 2009, published 2012)
